How the values were obtained:
Type in all cases: cell-based
[1] = system: SMMC-7721 (liver carcinoma) cell line; test: MTT cytotoxicity assay, SMMC-7721; conditions: Homo sapiens, 48 h, mean of three independent experiments, read-out: IC50 (μM) Mean ± SD, SMMC-7721
Experimental: (§1) All cell lines (A549, SGC-7901, Hela, SMMC-7721, and MCF-7) were purchased from the American Type Culture Collection (Manassas, VA, USA), and were cultured in Dulbecco’s modified Eagle’s medium (DMEM, HycloneLaboratories Inc., Logan, Utah, USA) supplemented with 10% fetal bovine serum (FBS, Gibco&Invitrogen, Carlsbad, CA, USA) at 37 °C and 5% CO2.
(§2) The cytotoxic activities of β-carboline-3-carboxylic acid derivatives were investigated by the MTT method, as previously described. Cells (1 × 10^4 cells per well) seeded into 96-well plates (JET, Guangzhou, China) were incubated with DMEM containing various concentrations (2.5, 5, 10, 20, 40, and 80 μM) of β-carbolines (4A, 4B, 4C, 4D, 6a-6f, 6g-6l, 6m-6r, and 6s-6x) for 48 h at 37 °C and 5% CO2. Then, 10 µL of 5 mg/mL MTT reagent dissolved in PBS (Phosphate buffered saline) was added per well, and plates were incubated at 37 °C for 4 h. The medium was carefully removed and 100 µL dimethyl sulfoxide (DMSO) was added to dissolve the formazan crystals. The absorbance was measured at 490 nm with a microplate reader (ThermoFisher Scientific Inc., Waltham, MA, USA). The β-carbolines were dissolved in DMSO as stock solutions (10 mM) at −20 °C, and diluted in the final experimental solution using DMEM before use. A549 (lung carcinoma), SGC-7901 (gastric carcinoma), Hela (cervical carcinoma), SMMC-7721 (liver carcinoma), and MCF-7 (breast carcinoma) cell lines were used for the antitumor activity screening. The IC50 values were the mean values of three independent experiments.

[2] = system: MRC5 (normal lung cell) cell line; test: MTT cytotoxicity assay, MRC5; conditions: Homo sapiens, 48 h
Experimental: [The procedure below names another cell line; the source lists this cell line under the same test.] as §2

[3] = system: A549 (lung carcinoma) cell line; test: MTT cytotoxicity assay, A549; conditions: Homo sapiens, 48 h, mean of three independent experiments, read-out: IC50 (μM) Mean ± SD, A549
Experimental: as §1, §2

[4] = system: SGC-7901 (gastric carcinoma) cell line; test: MTT cytotoxicity assay, SGC-7901; conditions: Homo sapiens, 48 h, mean of three independent experiments, read-out: IC50 (μM) Mean ± SD, SGC-7901
Experimental: as §1, §2

[5] = system: Hela (cervical carcinoma) cell line; test: MTT cytotoxicity assay, Hela; conditions: Homo sapiens, 48 h, mean of three independent experiments, read-out: IC50 (μM) Mean ± SD, Hela
Experimental: as §1, §2

[6] = system: MCF-7 (breast carcinoma) cell line; test: MTT cytotoxicity assay, MCF-7; conditions: Homo sapiens, MCF7, 48 h, mean of three independent experiments, read-out: IC50 (μM) Mean ± SD, MCF-7
Experimental: as §1, §2

Row | Structure (SMILES) | IC50 [1] [µM] | IC50 [2] [µM] | IC50 [3] [µM] | IC50 [4] [µM] | IC50 [5] [µM] | IC50 [6] [µM]
1 | COC(=O)c1cc2c3ccccc3n(Cc3ccccc3)c2cn1 [Compound 4A] | > 80 | 35.6 ± 0.3 | > 80 | > 80 | > 80 | > 80
2 | COC(=O)c1cc2c3ccccc3n(Cc3ccc(C)cc3)c2cn1 [Compound 4C] | > 80 | 35.35 ± 0.3 | 28.06 ± 0.13 | 47.98 ± 0.09 | 42.6 ± 0.98 | > 80
3 | O=c1[nH]cc(F)c(=O)[nH]1 [Compound 5-FU, 5-fluorouracil, reference compound] | 52.3 ± 2.06 | 16.3 ± 0.3 | 15.39 ± 0.09 | > 80 | > 80 | 57.7 ± 1.39
4 | O=C(OCCCOC(=O)c1cc2c3ccccc3n(Cc3ccccc3)c2cn1)c1cc2c3ccccc3n(Cc3ccccc3)c2cn1 [Compound 6a] | 25.7 ± 0.32 | 32.57 ± 0.1 | 24.27 ± 0.12 | 17.76 ± 0.17 | 17.89 ± 0.03 | 73.5 ± 0.88
5 | O=C(OCCCCOC(=O)c1cc2c3ccccc3n(Cc3ccccc3)c2cn1)c1cc2c3ccccc3n(Cc3ccccc3)c2cn1 [Compound 6b] | 66.53 ± 0.31 | 64.44 ± 0.09 | 12.26 ± 0.04 | 15.5 ± 0.32 | 18.2 ± 0.52 | 70.9 ± 2.33
6 | O=C(OCCCCCOC(=O)c1cc2c3ccccc3n(Cc3ccccc3)c2cn1)c1cc2c3ccccc3n(Cc3ccccc3)c2cn1 [Compound 6c] | 55.15 ± 0.03 | 39.34 ± 0.11 | 17.65 ± 0.09 | 18.72 ± 0.07 | 18.15 ± 0.03 | 76.9 ± 3.01
7 | O=C(OCCCCCCOC(=O)c1cc2c3ccccc3n(Cc3ccccc3)c2cn1)c1cc2c3ccccc3n(Cc3ccccc3)c2cn1 [Compound 6d] | 33.49 ± 0.01 | 66.99 ± 0.1 | 40.03 ± 0.15 | 58.4 ± 0.72 | 32.36 ± 0.02 | 75.5 ± 2.32
8 | O=C(OCCCCCCCCOC(=O)c1cc2c3ccccc3n(Cc3ccccc3)c2cn1)c1cc2c3ccccc3n(Cc3ccccc3)c2cn1 [Compound 6e] | 75.4 ± 0.89 | > 100 | 50.3 ± 3.15 | 69.97 ± 0.13 | 54 ± 0.56 | > 80
9 | Cc1ccccc1Cn1c2ccccc2c2cc(C(=O)OCCCOC(=O)c3cc4c5ccccc5n(Cc5ccccc5C)c4cn3)ncc21 [Compound 6g] | 73.5 ± 8.06 | 32.61 ± 0.1 | 18.3 ± 0.28 | 29.4 ± 1.03 | 17.99 ± 0.15 | 53.1 ± 2.28
10 | Cc1ccccc1Cn1c2ccccc2c2cc(C(=O)OCCCCOC(=O)c3cc4c5ccccc5n(Cc5ccccc5C)c4cn3)ncc21 [Compound 6h] | 24.7 ± 0.5 | 50.78 ± 0.09 | 8.09 ± 0.25 | 17.8 ± 0.93 | 45.8 ± 0.55 | 76.7 ± 5
11 | Cc1ccccc1Cn1c2ccccc2c2cc(C(=O)OCCCCCCOC(=O)c3cc4c5ccccc5n(Cc5ccccc5C)c4cn3)ncc21 [Compound 6j] | 16.68 ± 0.03 | 41 ± 0.07 | 12.18 ± 0.06 | 26.3 ± 1.03 | 18.1 ± 1.03 | 64.5 ± 3.31
12 | Cc1ccccc1Cn1c2ccccc2c2cc(C(=O)OCCCCCCCCOC(=O)c3cc4c5ccccc5n(Cc5ccccc5C)c4cn3)ncc21 [Compound 6k] | 33.9 ± 0.52 | 65.85 ± 0.07 | 37.4 ± 2.08 | 35 ± 2.09 | 36.7 ± 2.02 | 44.9 ± 2.99
13 | Cc1ccc(Cn2c3ccccc3c3cc(C(=O)OCCCOC(=O)c4cc5c6ccccc6n(Cc6ccc(C)cc6)c5cn4)ncc32)cc1 [Compound 6m] | 33.32 ± 0.03 | 49.05 ± 0.12 | 19.84 ± 0.04 | 18.4 ± 0.31 | 17.95 ± 0.02 | 28.43 ± 0.28
14 | Cc1ccc(Cn2c3ccccc3c3cc(C(=O)OCCCCOC(=O)c4cc5c6ccccc6n(Cc6ccc(C)cc6)c5cn4)ncc32)cc1 [Compound 6n] | 42.7 ± 2.18 | 26.39 ± 0.01 | 13.4 ± 0.35 | 37.8 ± 1.02 | 28 ± 0.99 | 49.1 ± 2.23
15 | Cc1ccc(Cn2c3ccccc3c3cc(C(=O)OCCCCCOC(=O)c4cc5c6ccccc6n(Cc6ccc(C)cc6)c5cn4)ncc32)cc1 [Compound 6o] | 36.62 ± 0.12 | 31.28 ± 0.07 | 11.2 ± 0.61 | 17.18 ± 0.03 | 18.8 ± 0.46 | 49.4 ± 1.65
16 | Cc1ccc(Cn2c3ccccc3c3cc(C(=O)OCCCCCCOC(=O)c4cc5c6ccccc6n(Cc6ccc(C)cc6)c5cn4)ncc32)cc1 [Compound 6p] | 26.8 ± 0.51 | 47.6 ± 0.02 | 19.28 ± 0.02 | 17.8 ± 0.22 | 15.7 ± 0.33 | 55 ± 2.22
17 | Cc1ccc(Cn2c3ccccc3c3cc(C(=O)OCCCCCCCCOC(=O)c4cc5c6ccccc6n(Cc6ccc(C)cc6)c5cn4)ncc32)cc1 [Compound 6q] | 29.8 ± 0.93 | 42.06 ± 0.09 | 23.65 ± 0.05 | 35.8 ± 0.82 | 45.2 ± 1.66 | 43.1 ± 2.01
18 | O=C(OCCCOC(=O)c1cc2c3ccccc3n(Cc3ccccc3F)c2cn1)c1cc2c3ccccc3n(Cc3ccccc3F)c2cn1 [Compound 6s] | 14.71 ± 0.08 | 22.82 ± 0.02 | 6.12 ± 0.03 | 8.06 ± 0.08 | 13.77 ± 0.11 | 25.2 ± 1.12
19 | O=C(OCCCCOC(=O)c1cc2c3ccccc3n(Cc3ccccc3F)c2cn1)c1cc2c3ccccc3n(Cc3ccccc3F)c2cn1 [Compound 6t] | 18.26 ± 0.18 | > 100 | 12.4 ± 0.59 | 9.01 ± 0.19 | 15.2 ± 0.32 | 25.7 ± 1.21
20 | O=C(OCCCCCCOC(=O)c1cc2c3ccccc3n(Cc3ccccc3F)c2cn1)c1cc2c3ccccc3n(Cc3ccccc3F)c2cn1 [Compound 6v] | 24.65 ± 0.06 | 67.75 ± 0.11 | 7.95 ± 0.06 | 8.6 ± 0.13 | 22.9 ± 1.36 | 42.4 ± 2.08
21 | O=C(OCCCCCCCCOC(=O)c1cc2c3ccccc3n(Cc3ccccc3F)c2cn1)c1cc2c3ccccc3n(Cc3ccccc3F)c2cn1 [Compound 6w] | 44.57 ± 0.02 | 60.78 ± 0.16 | 16.5 ± 0.33 | 29.98 ± 0.07 | 31.3 ± 1.88 | 76.3 ± 3.36

Source: PMC6214108, “Synthesis and In Vitro Antitumor Activity of Novel Bivalent β-Carboline-3-carboxylic Acid Derivatives with DNA as a Potential Target” (International Journal of Molecular Sciences, 2018)
